This note sets out measurements from PubChem BioAssay (NCI).

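Tested at 5 concentrations; 48 h exposure; 96-well plates; endpoints linearly interpolated, else capped at highest concentration. Abbreviation: GI50, concentration required for 50% inhibition of growth. TGI is the concentration that stops growth completely.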

Some test systems named below: SF-295 CNS; NCI-H23 lung; HT29 colon; NCI-H460 lung; OVCAR-4 ovarian; CAKI-1 renal; SN12C renal; SK-MEL-5 melanoma; EKVX NSCLC; SF-539 CNS.
Common to all, as to assay: DTP human tumour cell line panel, 48 h

A word on the TGI: it is the concentration at which net growth stops. Lower therefore signals more potent growth arrest. On to `C=C1CC[C@@]2(C)[C@@H]([C@@H]1C)[C@H]1CC[C@@H]3[C@@]4(C)CC[C@H](O)C(C)(C)[C@@H]4CC[C@@]3(C)[C@]1(C)C[C@@H]2O`, for which the total growth inhibition concentration (TGI) in the experiment with SF-295 CNS came to 12.2 µM; in the experiment with NCI-H23 lung, 5.64 µM; in the experiment on HT29 colon it was 19.6 µM; in the experiment with NCI-H460 lung, 4.7 µM; in the experiment on OVCAR-4 ovarian it was 6.53 µM; in the experiment with CAKI-1 renal it was 5.59 µM. For the same compound, the TGI in the experiment on SN12C renal is above 100 µM; in the experiment on SK-MEL-5 melanoma, above 50.3 µM; in the experiment on EKVX NSCLC it was 7.22 µM; in the experiment on SF-539 CNS, 6.29 µM.
In general, GI50 refers to the concentration giving 50% growth inhibition. As for `O=C([CH-]C(=O)c1ccccc1)c1ccccc1.[C-]#[O+].[C-]#[O+].[Ir]`, the GI50 in the experiment with SF-295 CNS was 42.9 µM; in the experiment with NCI-H23 lung it was 52.8 µM; in the experiment with HT29 colon, 63.5 µM; with NCI-H460 lung, 39.7 µM; with OVCAR-4 ovarian, above 100 µM; in the experiment with CAKI-1 renal it was 79.1 µM. Further, the GI50 was 48.3 µM in the experiment on SN12C renal, 39.3 µM in the experiment on SK-MEL-5 melanoma, above 100 µM in the experiment on EKVX NSCLC and 99.4 µM in the experiment with SF-539 CNS. The TGI in the experiment with SF-295 CNS, in the experiment with NCI-H23 lung, with HT29 colon, with NCI-H460 lung, with OVCAR-4 ovarian and in the experiment with CAKI-1 renal was above 100 µM in each case. The TGI in the experiment with SN12C renal, in the experiment on SK-MEL-5 melanoma, with EKVX NSCLC and with SF-539 CNS was above 100 µM each time.
